Data from patent US20240000883A1, “METHOD OF SENSITIZING CANCERS TO IMMUNOTHERAPY USING IMMUNOMODULATORY AGENTS” (The Trustees of Columbia University in the City of New York, priority 2020, published 2024).

Legend:
[1] = tested on: de novo pancreatic ductal adenocarcinoma (PDAC); experiment: Survival of transgenic KPC mice bearing de novo PDAC under long-term treatment; assay type: in vivo
Protocol: FIG. 1A is a graph showing the percent survival of transgenic Kras-LSL^[…], p53-LSL^172H, Pdx-1-cre (KPC) mice bearing de novo pancreatic ductal adenocarcinoma (PDAC) treated with gemcitabine (GEM).
FIG. 1 presents data showing that iRGD therapy increases CD8^+ T cells in transgenic PDAC mice. […] We randomized mice to therapy with intraperitoneal (IP) gemcitabine alone (100 mg/kg/injection), intravenous (IV) iRGD alone (100 μg/injection) or gemcitabine co-administered with iRGD. Mice were followed with high resolution ultrasound and manual palpation until at least one tumor nodule of 4-5 mm became both palpable and visible on consecutive ultrasound exams. At this point, the mice were randomized to one of the three treatment arms. Treatment was given every 4 days until the animals were sacrificed for having signs of distress. […] Of note, while there was a difference in median survival favoring the combination (71 days versus 84 days), there was a more striking difference in the tail of the survival curve such that survival at 180 days was 0% for gemcitabine alone versus 40% in the iRGD+gemcitabine group.

Tregs in KPC-luc tumors = experiment: Targeting of Tregs in KPC-luc PDAC by intravenously injected FAM-iRGD; assay type: in vivo, mice
Protocol: FIG. 2H is an image showing that intravenously injected FAM-iRGD (green) targets CD4^+ (magenta) Foxp3^+ (red) Tregs in KPC-luc PDAC (white arrowheads). Some iRGD-targeted Foxp3^+ cells were CD4^neg (black arrowheads). Blue=DAPI. Scale bar, 50 μm.
Based on the finding that Tregs in PDAC, but not those in the spleen expressed αv integrins and NPR-1 (the receptors of iRGD), studies were performed to determine whether iRGD selectively targets PDAC-infiltrating Tregs. Intravenously injected FAM-iRGD (green) targets CD4^+ (magenta) Foxp3^+ (red) Tregs in KPC-luc PDAC (See FIG. 2H, white arrowheads). Some iRGD-targeted Foxp3^+ cells were CD4^neg (black arrowheads). Blue, DAPI; scale bar, 50 μm.

Row | Molecule | survival at 180 days ([1]; 180 days) | median survival ([1]; treatment every 4 days) | targeting of CD4+ Foxp3+ Tregs in KPC-luc PDAC (Tregs in KPC-luc tumors)
1 | Nc1ccn([C@@H]2O[C@H](CO)[C@@H](O)C2(F)F)c(=O)n1 [gemcitabine] | 0% | 71 days | 
2 | FAM-iRGD: fluorescein (FAM)-labeled iRGD |  |  | targets
